Assay results published in patent publication US9278924B2, “5-nonyloxytryptamine and related intracellular PH acidifiers for the treatment and prevention of cancer” (THE JOHNS HOPKINS UNIVERSITY, priority 2011, dated 2016).
Counter-ions that a name gives are not always drawn. The star is where a group is joined. Cbz = O=C(OCc1ccccc1)*; CH2F = FC*

Tests used:
020913 neurospheres = assay: ATPlite luminescence assay of cellular ATP; type: cell-based; settings: 1 μM and 10 μM, 1 or 3 hours
Method: Cells were incubated for either 1 or 3 hours in the presence of DMSO (control) or 5-NOTO (1 μM and 10 μM), ATP levels were determined using ATPlite Luminescence Assay System (PerkinElmer) according to manufacturer instructions.
5-NOTO Induces Rapid Necrosis in GBM Neurospheres. One of the classical features of necrotic cells is rapid and significant drop in intracellular ATP levels. The effect of 5-NOTO on ATP release was assayed at 1 hr and 3 hr post-treatment as follows. Briefly, 020913 neurospheres were triturated to a single-cell suspension and 20,000 cells were plated per well. Cells were plated in triplicates for vehicle alone, 1 μM 5-NOTO, and 10 μM 5-NOTO. At each time point, 100 μl of ATPlite 1-step reagent (Perkin Elmer) was added to each well and incubated with shaking for 2 minutes. After dark adaptation for 10 minutes, the samples were read using a microplate reader (Perkin Elmer). Readings were averaged and the percent differences in ATP release between treated and vehicle alone were calculated (RLU). This experiment was performed in triplicate with similar results (FIG. 6).

[1] = target: 5HTR1B serotonin receptor (Homo sapiens, UniProt P28222); settings: agonist; cited from earlier work
Chain of 5HTR1B serotonin receptor (P28222 whole entry): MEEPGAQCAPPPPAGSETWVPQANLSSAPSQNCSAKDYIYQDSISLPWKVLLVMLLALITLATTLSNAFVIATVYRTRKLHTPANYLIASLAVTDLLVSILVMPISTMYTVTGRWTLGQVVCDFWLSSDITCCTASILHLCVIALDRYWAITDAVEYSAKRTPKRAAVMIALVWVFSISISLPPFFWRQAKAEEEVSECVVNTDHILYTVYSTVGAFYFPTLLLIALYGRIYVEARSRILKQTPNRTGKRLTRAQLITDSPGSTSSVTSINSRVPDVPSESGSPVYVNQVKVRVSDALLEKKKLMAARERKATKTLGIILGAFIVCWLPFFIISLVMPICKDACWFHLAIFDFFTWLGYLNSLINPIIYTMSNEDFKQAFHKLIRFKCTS

GBM neurosphere lines = assay: cAMP GLO assay of cellular cAMP levels; type: cell-based; settings: three GBM neurosphere lines
Description: In this assay cAMP levels are inversely correlated with luminescence (RLU). Cyanopindolol is a Gα antagonist and is required for detection of 5HTR1B activity. Sumatriptan, another 5HTR1B agonist (similar to 5-NOTO), and forskolin {a known Gα agonist) were used as controls.
The Serotonin Receptors 5HTR1B and 5HTR1A are Not the Target Of 5-NOTO Action in GBM. 5-NOTO is not an FDA approved drug but its biological target is known. 5-NOTO is a specific agonist for the 5HTR1B serotonin receptor (400 times more specific for 5HTR1B then for 5HTR1A). 5HTR1B (as well as other 5HTR1 isoforms) are heterotrimeric G-protein coupled receptors which interact with Gα an inhibitor of adenylate cyclase. Therefore, we sought to determine if treatment with 5-NOTO will result in decreased cellular cAMP levels as activation of Gα should inhibit adenylate cydase, the enzyme which catalyzes the conversion of ATP to cAMP. To this end, cells were treated with cyanopindolol, an antagonist of 5HTR1B, which should increase adenylate cyclase activity (if 5HTR1B is functional), and either 5-NOTO or sumatriptan, the latter being similar to 5-NOTO, activating both 5HTR1B and 5HTR1A. […] Importantly, sumatriptan also had no effect on cellular cAMP levels, strengthening the notion that 5HTR1B (and likely 5HTR1A) have very little to no effect on cellular cAMP levels in the GBM models.

040622 GBM neurospheres [2] = assay: Annexin V apoptosis assay; type: cell-based; settings: 10 μM, 24 hours; DMSO 10-20%
Method: (§1) FIG. 4 depicts apoptosis analysis for GBM neurospheres treated with 5-NOTO for 24 hours. Cells were plated and then treated for 24 hours with DMSO (control), 1 μM and 10 μM 5-NOTO. Cells were then processed for Annexin V assay using the Nexin reagent (Millipore) and % Annexin positive cells was determined using flow cytometry.
(§2) 5-NOTO Induces Apoptosis in GBM Neurospheres. To ascertain that 5-NOTO induces apoptosis, cells were treated with DMSO (control), 1 μM, and 10 μM 5-NOTO for 24 hours at which point cells were processed for Annexin V apoptosis assay (Millipore), which is a simple and effective method to detect one of the earliest events in apoptosis, the externalization of phosphatidylserine in living cells. […] Higher levels of 5-NOTO (100 μM) eliminated the vast majority of viable cells (80-90%) 48 hours post treatment (Data not shown)).

020913 GBM neurospheres = assay: Annexin V apoptosis assay; type: cell-based; settings: 10 μM, 24 hours; DMSO 10-20%
Method: as §1, §2

040821 GBM neurospheres = assay: Annexin V apoptosis assay; type: cell-based; settings: 10 μM, 24 hours; DMSO 10-20%
Method: as §1, §2

[3] = system: GBM-derived neurosphere line 020913; assay: Guava ViaCount viability assay; type: cell-based; settings: 48 h, read-out: percent viability
Method: (§3) Cells were plated in 24-well plates and treated with DMSO or t 10 μM 5-NOTO. 48 hours later, cell viability was determined using Guava PCA flow cytometer with Guava ViaCount reagent.
(§4) We next sought to examine if 5-NOTO is generally cytotoxic or if its cytotoxicity may be specific to some cancer types. To this end, we examined the apoptotic induction in a uveal melanoma cell line, OCM 1. Cells were treated for 48 hours with 10 μM of 5-NOTO followed by Viacount assay. 5-NOTO had no effect on viability of OCM1 as the percentage of viable cells remained greater than 90% (FIG. 8). In contrast, percent viability in 020913 neurospheres treated with 10 μM 5-NOTO was only 10%.

[4] = Guava ViaCount viability assay; type: cell-based; settings: human, uveal melanoma cell line OCM1, read-out: percentage of viable cells
Method: as §3, §4

GBM neurospheres [5] = assay: Guava ViaCount cell viability, IC50 determination; type: cell-based; settings: 48 hours, all neurospheres tested; read-out: IC50 (concentration required to kill 50% of the cells)
Method: Cells were treated for 48 hours with various concentrations of 5-NOTO and incubated for 48 hours in humidified incubator as which point, Guava Viacount reagent (Millipore) was used to assess the percentage of viable cells remaining in each treatment well. IC50 (concentration of drug required for 50% reduction in cell viability) was calculated using Graphpad 5.0 software package. The respective IC50 is indicated for each neurosphere line.
Determination of cytotoxic effects. We next sought to determine the concentration of 5-NOTO which is required to kill 50% of the cells (e.g. IC50). Cells were plated in 24-well plates at 25,000 cells/well and treated for 48 hours with either DMSO (control) or various concentration of 5-NOTO (FIG. 2). Guava PCA flow cytometry system was used with the Guava Viawunt reagent (Millipore) to determine cell viability. Data was analyzed using GraphPad 5.0 software package. IC50 was calculated using non linear regression.

[6] = system: GBM-derived neurosphere cell lines; assay: MTT growth assay; type: cell-based; settings: 72 h, read-out: inhibition of growth (viable cell mass, MTT)
Method: FIG. 2 depicts MTT growth assays for neurospheres treated with 5-NOTO. Cells were plated in 96-multiwell plates and treated with either DM50 (Control •) or 5-NOTO (at 1 uM ▪ and 10 μM ▴). MTT reagent was added to indirectly measure viable cell mass at each time point. Absorbance was measured wt 490 nm using an Epoch Microplate Spectrophotometer (BioTek).
5-NOTO is a Potent Inhibitor of Cancer Cell Growth. To test the hypothesis that as a pH acidifier, 5-NOTO should reduce cell proliferation, we treated three independent GBM-derived neurosphere cell lines with DMSO (control), 1 μM, and 10 μM 5-NOTO for three days. Accumulation of viable cell mass was measured using MTT growth assay (Promega). Absorbance (A490) was measured using an Epoch Microplate Spectrophotometer (Biotek) at the indicated time points.

GBM neurospheres [7] = assay: Elimination of viable cells at high 5-NOTO level; type: cell-based; settings: 48 h, read-out: viable cells eliminated
Method: as §2

GBM neurospheres 040622 = assay: Necrosis by Nexin staining and flow cytometry, 90 minutes; type: cell-based; settings: 10 μM, DMSO 5%
Method: (§5) FIG. 9 depicts induction of necrotic cell death by 5-NOTO. GBM neurospheres 020913 and 040622 and normal neural stem cells immortalized with v-Myc (VNSC) were treated with DMSO (control, black bars) or with 10 μM 5-NOTO (red bars). Cells were treated for 90 minutes and then processed for viability assay using Nexin staining % Necrosis was determined by flow cytometry. […] VNSCs on the other hand were completely resistant to 5-NOTO showing 26% and 25% in DMSO and 5-NOTO treatments, respectively.
(§6) Induction of Necrotic Cell Death by 5-NOTO. GBM neurospheres 020913 and 040622 and normal neural stem cells immortalized with v-Myc (VNSC) were treated with DMSO (control, black bars) or with 10 μM 5-NOTO. Cells were treated for 90 minutes and then processed for viability assay using Nexin staining % Necrosis was determined by flow cytometry. […] VNSCs on the other hand were completely resistant to 5-NOTO showing 26% and 25% in DMSO and 5-NOTO treatments, respectively.

GBM neurospheres 020913 = assay: as above; type: cell-based; settings: 10 μM, DMSO 13%
Method: as §5, §6

[8] = system: normal neural stem cells immortalized with v-Myc (VNSC); assay: as above; type: cell-based; settings: 10 μM, DMSO 26%
Method: as §5, §6

040622 GBM neurospheres [9] = assay: Apoptosis/necrosis evaluation with Guava Nexin reagent, 30 minutes; type: cell-based
Method: Cells were treated with DMSO (control), the multi caspase inhibitor Z-VAD-FMK (20 μM), 5-NOTO (10 μM) or the latter two in combination. Guava Nexin assay reagent was used to determine Viable (black), apoptotic (yellow), and necrotic/apoptotic (Red) cell fractions.
To test necrotic cell death directly, cells were treated with DMSO (control) or 10 μM 5-NOTO for 30 minutes followed by apoptosis/necrosis evaluation using Guava PCA flow cytometer and Nexin reagent (Millipore). […] Similar results were documented for 020913 and 040821 neurospheres (not shown).

Question: With `CCCCCCCCCOc1ccc2[nH]cc(CCN)c2c1` [5-NOTO, 5-nonyloxytryptamine oxalate] as the compound, how does the “effect on cellular ATP levels” value (020913 neurospheres) read?
Answer: depletes cellular ATP levels in a time and dose dependent fashion

Question: And the “specificity for 5HTR1B over 5HTR1A” value [1]?
Answer: 400 times

Question: And the “effect on cellular cAMP levels” value (GBM neurosphere lines)?
Answer: not affected

Question: And the “apoptotic cell fraction (Annexin V positive)” value (from here on “apoptotic cell fraction”) (040622 GBM neurospheres [2])?
Answer: more than 60%

Question: What about the “apoptotic cell fraction” value (020913 GBM neurospheres) of the same compound?
Answer: > 80%

Question: And the “apoptotic cell fraction” value (040821 GBM neurospheres)?
Answer: > 70%

Question: What about the viability at 10 µM [3] of the same compound?
Answer: 10%

Question: What about the viability at 48 h, 10 µM [4] of the same compound?
Answer: > 90%

Question: What about the IC50 (GBM neurospheres [5]) of the same compound?
Answer: ~10 µM

Question: What about the cytotoxicity at 10 µM [6] of the same compound?
Answer: > 90%

Question: And the cytotoxicity at 100 µM (GBM neurospheres [7])?
Answer: 80 to 90%

Question: What about the “% necrosis” value (GBM neurospheres 040622) of the same compound?
Answer: 65%

Question: What about the “% necrosis” value (GBM neurospheres 020913) of the same compound?
Answer: 56%

Question: And the “% necrosis” value [8]?
Answer: 25%

Question: And the necrotic/dead fraction (040622 GBM neurospheres [9]; 10 μM, 30 minutes, DMSO 15.83%)?
Answer: 54.17%

Question: With `CC(C)(C)NCC(O)COc1cccc2[nH]c(C#N)cc12` (stereo not drawn) [Cyanopindolol, cyanopindolol] as the compound, how does the “effect on cellular cAMP levels” value (GBM neurosphere lines) read?
Answer: not affected

Question: For `CNS(=O)(=O)Cc1ccc2[nH]cc(CCN(C)C)c2c1` [sumatriptan], which “effect on cellular cAMP levels” value (GBM neurosphere lines) is on record?
Answer: no effect

Question: Which “effect on 5-NOTO-induced necrotic/dead cell fraction” value (040622 GBM neurospheres [9]; pre-treatment with 20 μM Z-VAD-FMK, then 10 μM 5-NOTO) does the source give for “Cbz-Val-Ala-Asp-CH2F [reference compound]” here?
Answer: no effect
